Data from patent US20250002507A1, “7,8-DIHYDRO-5H-1,6-NAPHTHYRIDINE DERIVATIVES AS POSITIVE ALLOSTERIC MODULATORS OF THE MUSCARINIC ACETYLCHOLINE RECEPTOR M4 FOR TREATING NEUROLOGICAL AND PSYCHIATRIC DISORDERS” (Vanderbilt University, priority 2021, published 2025).

Molecular target: T1, Human M4 (Homo sapiens, UniProt P08173)
T1 construct: expressed in transfected cells
T1 sequence (P08173 1-479): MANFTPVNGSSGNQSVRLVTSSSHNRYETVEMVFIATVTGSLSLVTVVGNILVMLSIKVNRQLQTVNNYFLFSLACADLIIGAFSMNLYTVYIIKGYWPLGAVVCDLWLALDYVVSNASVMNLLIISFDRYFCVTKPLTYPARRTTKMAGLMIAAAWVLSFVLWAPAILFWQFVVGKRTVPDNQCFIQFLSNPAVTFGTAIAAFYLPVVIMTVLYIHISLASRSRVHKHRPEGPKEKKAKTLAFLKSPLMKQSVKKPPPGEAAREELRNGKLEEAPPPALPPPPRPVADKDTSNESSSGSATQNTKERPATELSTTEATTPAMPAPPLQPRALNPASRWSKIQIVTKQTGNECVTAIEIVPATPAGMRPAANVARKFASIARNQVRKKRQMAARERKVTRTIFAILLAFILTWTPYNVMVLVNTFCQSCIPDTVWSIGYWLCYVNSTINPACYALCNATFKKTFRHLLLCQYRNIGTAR
Experiment: mAChR M4 cell-based functional assay (calcium flux, potentiation of EC20 acetylcholine response), hM4-Gqi5 CHO-K1 cells
Settings: for Emax at 30 µM: CHO-K1, % ACh maximum at 30 μM, human M4, read-out: Emax; for EC50: hM4-Gqi5 CHO-K1 cells, calcium flux, PAM of EC20 acetylcholine, read-out: Human M4 EC50
Procedure, shortened: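 Positive allosteric modulation was scored as a concentration-dependent rise in the response to an EC20 dose of acetylcholine, added 144 s after the compound. Human M4-Gqi5 CHO-K1 cells carried Fluo-4 dye, and compounds ran as 11-point, 3-fold dilution series. EC50 and Emax came from four-parameter logistic fits of the FDSS fluorescence-ratio traces.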

Compound | Emax at 30 µM | EC50
Cc1c(N2CCc3ncc(C(=O)N4CCOCC4)cc3C2)nn2cnnc2c1C [Compound 58, [6-(7,8-dimethyl-[1,2,4]triazolo[4,3-b]pyridazin-6-yl)-7,8-dihydro-5H-1,6-naphthyridin-3-yl]-morpholino-methanone] | 51% | 
Cc1c(N2CCc3ncc(C(=O)Nc4ccccc4F)cc3C2)nn2cnnc2c1C [Compound 59, 6-(7,8-dimethyl-[1,2,4]triazolo[4,3-b]pyridazin-6-yl)-N-(2-fluorophenyl)-7,8-dihydro-5H-1,6-naphthyridine-3-carboxamide] | 89% | 0.695 µM
Cc1ncc(-c2cnc3c(c2)CN(c2nn4cnnc4c(C)c2C)CC3)s1 [Compound 60, 5-[6-(7,8-dimethyl-[1,2,4]triazolo[4,3-b]pyridazin-6-yl)-7,8-dihydro-5H-1,6-naphthyridin-3-yl]-2-methyl-thiazole] | 82% | 0.18 µM
Cc1nc(C)c(-c2cnc3c(c2)CN(c2nn4cnnc4c(C)c2C)CC3)s1 [Compound 61, 5-[6-(7,8-dimethyl-[1,2,4]triazolo[4,3-b]pyridazin-6-yl)-7,8-dihydro-5H-1,6-naphthyridin-3-yl]-2,4-dimethyl-thiazole] | 89% | 0.171 µM
Cc1c(N2CCc3ncc(C(C)(C)O)cc3C2)nn2cnnc2c1C [Compound 62, 2-[6-(7,8-Dimethyl-[1,2,4]triazolo[4,3-b]pyridazin-6-yl)-7,8-dihydro-5H-1,6-naphthyridin-3-yl]propan-2-ol] | 108% | 0.0929 µM
Cc1c(N2CCc3ncc(-c4cnn(Cc5ccccc5)c4)cc3C2)nn2cnnc2c1C [Compound 63, 3-(1-benzylpyrazol-4-yl)-6-(7,8-dimethyl-[1,2,4]triazolo[4,3-b]pyridazin-6-yl)-7,8-dihydro-5H-1,6-naphthyridine] | 94% | 0.262 µM
Cc1c(N2CCc3ncc(Nc4c(F)cccc4Cl)cc3C2)nn2cnnc2c1C [Compound 64, N-(2-chloro-6-fluoro-phenyl)-6-(7,8-dimethyl-[1,2,4]triazolo[4,3-b]pyridazin-6-yl)-7,8-dihydro-5H-1,6-naphthyridin-3-amine] | 96% | 0.788 µM
COc1cccc(Nc2cnc3c(c2)CN(c2nn4cnnc4c(C)c2C)CC3)c1F [Compound 65, 6-(7,8-dimethyl-[1,2,4]triazolo[4,3-b]pyridazin-6-yl)-N-(2-fluoro-3-methoxy-phenyl)-7,8-dihydro-5H-1,6-naphthyridin-3-amine] | 104% | 0.188 µM
Cc1c(N2CCc3ncc(Nc4cccc(C(F)(F)F)c4F)cc3C2)nn2cnnc2c1C [Compound 66, 6-(7,8-dimethyl-[1,2,4]triazolo[4,3-b]pyridazin-6-yl)-N-[2-fluoro-3-(trifluoromethyl)phenyl]-7,8-dihydro-5H-1,6-naphthyridin-3-amine] | 95% | 0.882 µM
Cc1c(N2CCc3ncc(Nc4cccc(Cl)c4F)cc3C2)nn2cnnc2c1C [Compound 67, N-(3-chloro-2-fluoro-phenyl)-6-(7,8-dimethyl-[1,2,4]triazolo[4,3-b]pyridazin-6-yl)-7,8-dihydro-5H-1,6-naphthyridin-3-amine] | 86% | 0.219 µM
Cc1c(N2CCc3ncc(Nc4ccc(Cl)cc4F)cc3C2)nn2cnnc2c1C [Compound 68, N-(4-chloro-2-fluoro-phenyl)-6-(7,8-dimethyl-[1,2,4]triazolo[4,3-b]pyridazin-6-yl)-7,8-dihydro-5H-1,6-naphthyridin-3-amine] | 96% | 0.386 µM
Cc1ccc(F)c(Nc2cnc3c(c2)CN(c2nn4cnnc4c(C)c2C)CC3)c1 [Compound 69, 6-(7,8-dimethyl-[1,2,4]triazolo[4,3-b]pyridazin-6-yl)-N-(2-fluoro-5-methyl-phenyl)-7,8-dihydro-5H-1,6-naphthyridin-3-amine] | 90% | 0.296 µM
Cc1c(N2CCc3ncc(Nc4ccc(F)cc4F)cc3C2)nn2cnnc2c1C [Compound 70, N-(2,4-difluorophenyl)-6-(7,8-dimethyl-[1,2,4]triazolo[4,3-b]pyridazin-6-yl)-7,8-dihydro-5H-1,6-naphthyridin-3-amine] | 101% | 0.205 µM
[2H]c1nnc2c(C)c(C)c(N3CCc4ncc(Nc5ccccc5F)cc4C3)nn12 [Compound 71, 6-(3-deuterio-7,8-dimethyl-[1,2,4]triazolo[4,3-b]pyridazin-6-yl)-N-(2-fluorophenyl)-7,8-dihydro-5H-1,6-naphthyridin-3-amine] | 102% | 0.0656 µM
[2H]c1nnc2c(C)c(C)c(N3CCc4ncc(Nc5cc(F)ccc5F)cc4C3)nn12 [Compound 72, 6-(3-deuterio-7,8-dimethyl-[1,2,4]triazolo[4,3-b]pyridazin-6-yl)-N-(2,5-difluorophenyl)-7,8-dihydro-5H-1,6-naphthyridin-3-amine] | 97% | 0.0497 µM
[2H]c1nnc2c(C)c(C)c(N3CCc4ncc(Nc5cc(F)cc(F)c5F)cc4C3)nn12 [Compound 73, 6-(3-deuterio-7,8-dimethyl-[1,2,4]triazolo[4,3-b]pyridazin-6-yl)-N-(2,3,5-trifluorophenyl)-7,8-dihydro-5H-1,6-naphthyridin-3-amine] | 92% | 0.114 µM
[2H]c1nnc2c(C)c(C)c(N3CCc4ncc(-c5c(C)noc5C)cc4C3)nn12 [Compound 74, 4-[6-(3-deuterio-7,8-dimethyl-[1,2,4]triazolo[4,3-b]pyridazin-6-yl)-7,8-dihydro-5H-1,6-naphthyridin-3-yl]-3,5-dimethyl-isoxazole] | 103% | 0.108 µM
[2H]c1nnc2c(C)c(C)c(N3CCc4ncc(-c5c(C)nn(C)c5C)cc4C3)nn12 [Compound 75, 6-(3-deuterio-7,8-dimethyl-[1,2,4]triazolo[4,3-b]pyridazin-6-yl)-3-(1,3,5-trimethylpyrazol-4-yl)-7,8-dihydro-5H-1,6-naphthyridine] | 99% | 0.164 µM
[2H]c1nnc2c(C)c(C)c(N3CCc4ncc(-c5cn(C)nc5C)cc4C3)nn12 [Compound 76, 6-(3-deuterio-7,8-dimethyl-[1,2,4]triazolo[4,3-b]pyridazin-6-yl)-3-(1,3-dimethylpyrazol-4-yl)-7,8-dihydro-5H-1,6-naphthyridine] | 101% | 0.127 µM
[2H]c1nnc2c(C)c(C)c(N3CCc4ncc(-c5cnn(CC6CC6)c5)cc4C3)nn12 [Compound 77, 3-[1-(cyclopropylmethyl)pyrazol-4-yl]-6-(3-deuterio-7,8-dimethyl-[1,2,4]triazolo[4,3-b]pyridazin-6-yl)-7,8-dihydro-5H-1,6-naphthyridine] | 89% | 0.216 µM
[2H]c1nnc2c(C)c(C)c(N3CCc4ncc(-c5cncs5)cc4C3)nn12 [Compound 78, 5-[6-(3-deuterio-7,8-dimethyl-[1,2,4]triazolo[4,3-b]pyridazin-6-yl)-7,8-dihydro-5H-1,6-naphthyridin-3-yl]thiazole] | 92% | 0.0639 µM
Cc1c(N2CCc3ncc(Nc4ncc(F)cc4F)cc3C2)nn2cnnc2c1C [Compound 79, N-(3,5-difluoro-2-pyridyl)-6-(7,8-dimethyl-[1,2,4]triazolo[4,3-b]pyridazin-6-yl)-7,8-dihydro-5H-1,6-naphthyridin-3-amine] | 62% | 0.18 µM
